Reference: PubChem BioAssay (NCI)
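How tested: cells in 96-well plates exposed to compound for 48 hours at five concentrations. The concentration for full growth arrest is given as TGI.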

Key:
Assay in all cases: DTP human tumour cell line panel, 48 h
786-0 renal = system: 786-0 renal
A498 renal = system: A498 renal
A549 NSCLC = system: A549 NSCLC
ACHN renal = system: ACHN renal
BT-549 breast = system: BT-549 breast
CAKI-1 renal = system: CAKI-1 renal
CCRF-CEM leukemia = system: CCRF-CEM leukemia
COLO 205 colon = system: COLO 205 colon
DU-145 prostate = system: DU-145 prostate
EKVX NSCLC = system: EKVX NSCLC
HCC-2998 colon = system: HCC-2998 colon
HCT-116 colon = system: HCT-116 colon
HCT-15 colon = system: HCT-15 colon
HL-60(TB) leukemia = system: HL-60(TB) leukemia
HOP-62 NSCLC = system: HOP-62 NSCLC
HOP-92 NSCLC = system: HOP-92 NSCLC
HS 578T breast = system: HS 578T breast
HT29 colon = system: HT29 colon
K-562 leukemia = system: K-562 leukemia
KM12 colon = system: KM12 colon
M14 melanoma = system: M14 melanoma
MALME-3M melanoma = system: MALME-3M melanoma
MCF7 breast = system: MCF7 breast
MDA-MB-231 breast = system: MDA-MB-231 breast
MDA-MB-435 = system: MDA-MB-435
MDA-N = system: MDA-N
MOLT-4 leukemia = system: MOLT-4 leukemia
NCI-H226 lung = system: NCI-H226 lung
NCI-H23 lung = system: NCI-H23 lung
NCI-H460 lung = system: NCI-H460 lung
NCI-H522 lung = system: NCI-H522 lung
NCI/ADR-RES ovarian = system: NCI/ADR-RES ovarian
OVCAR-3 ovarian = system: OVCAR-3 ovarian
OVCAR-4 ovarian = system: OVCAR-4 ovarian
OVCAR-5 ovarian = system: OVCAR-5 ovarian
OVCAR-8 ovarian = system: OVCAR-8 ovarian
PC-3 prostate = system: PC-3 prostate
RXF 393 renal = system: RXF 393 renal
SF-268 CNS = system: SF-268 CNS
SF-295 CNS = system: SF-295 CNS
SF-539 CNS = system: SF-539 CNS
SK-MEL-2 melanoma = system: SK-MEL-2 melanoma
SK-MEL-28 melanoma = system: SK-MEL-28 melanoma
SK-MEL-5 melanoma = system: SK-MEL-5 melanoma
SK-OV-3 ovarian = system: SK-OV-3 ovarian
SN12C renal = system: SN12C renal
SNB-19 CNS = system: SNB-19 CNS
SNB-75 CNS = system: SNB-75 CNS
SW-620 colon = system: SW-620 colon
T-47D breast = system: T-47D breast
TK-10 renal = system: TK-10 renal
U251 CNS = system: U251 CNS
UACC-257 melanoma = system: UACC-257 melanoma
UACC-62 melanoma = system: UACC-62 melanoma
UO-31 renal = system: UO-31 renal
IGROV1 ovarian = system: IGROV1 ovarian
LOX IMVI melanoma = system: LOX IMVI melanoma
RPMI-8226 leukemia = system: RPMI-8226 leukemia

Measured: TGI

O=C(c1ccc(Cl)cc1)N(C(=S)OC12CC3CC(CC(C3)C1)C2)c1ccccc1
74.5 µM: UO-31 renal
73.5 µM: MOLT-4 leukemia
31.2 µM: COLO 205 colon
66.5 µM: EKVX NSCLC
56.3 µM: NCI-H522 lung
62.6 µM: HL-60(TB) leukemia
89.7 µM: SNB-19 CNS
not listed: IGROV1 ovarian | LOX IMVI melanoma | RPMI-8226 leukemia
> 100 µM: all other assays above

CCO/C(O)=C(/C(=N)N1CCOCC1)C(=O)Nc1ccc(Cl)cc1
not listed: HOP-92 NSCLC | SK-MEL-5 melanoma | UO-31 renal
> 100 µM: all other assays above
